Measurements: the supplement of paper PMC10307832

Legend:
Assay in all cases: relative viability (nuclei count vs DMSO), 5 days (fraction); higher = more cells survive
BAY61-3606 + Foretinib = compound: COC1=C(C=C(C=C1)C2=CC3=NC=CN3C(=N2)NC4=C(C=CC=N4)C(=O)N)OC [BAY61-3606] + COc1cc2c(Oc3ccc(NC(=O)C4(C(=O)Nc5ccc(F)cc5)CC4)cc3F)ccnc2cc1OCCCN1CCOCC1 [Foretinib] (partner 0.25 µM)
In short: (§1)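 Relative viability equals treated-well nuclei counts divided by vehicle-well nuclei counts. Counts came from 4× images of lung cancer cell lines grown in 1536-well plates for 5 days after pin-tool dosing on the day after seeding. Dosing used one drug alone or a fixed anchor-drug dose plus five library-drug doses (not always all listed) in √10 steps, and values are medians of duplicate plates.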

BAY61-3606 + Crizotinib = compound: COC1=C(C=C(C=C1)C2=CC3=NC=CN3C(=N2)NC4=C(C=CC=N4)C(=O)N)OC [BAY61-3606] + C[C@@H](Oc1cc(-c2cnn(C3CCNCC3)c2)cnc1N)c1c(Cl)ccc(F)c1Cl [Crizotinib] (partner 1 µM)
In short: as §1

BAY61-3606 + Linsitinib = compound: COC1=C(C=C(C=C1)C2=CC3=NC=CN3C(=N2)NC4=C(C=CC=N4)C(=O)N)OC [BAY61-3606] + C[C@]1(O)C[C@@H](c2nc(-c3ccc4ccc(-c5ccccc5)nc4c3)c3c(N)nccn32)C1 [Linsitinib] (partner 1 µM)
In short: as §1

Doxorubicin + Pictilisib = compound: COc1cccc2c1C(=O)c1c(O)c3c(c(O)c1C2=O)C[C@@](O)(C(=O)CO)C[C@@H]3O[C@H]1C[C@H](N)[C@H](O)[C@H](C)O1 [Doxorubicin] + CS(=O)(=O)N1CCN(Cc2cc3nc(-c4cccc5[nH]ncc45)nc(N4CCOCC4)c3s2)CC1 [Pictilisib] (partner 1 µM)
In short: as §1

Cell Line | relative viability (BAY61-3606 + Foretinib; first compound 0.02 µM) | relative viability (BAY61-3606 + Foretinib; first compound 0.06325 µM) | relative viability (BAY61-3606 + Foretinib; first compound 0.2 µM) | relative viability (BAY61-3606 + Foretinib; first compound 0.6325 µM) | relative viability (BAY61-3606 + Foretinib; first compound 2 µM) | relative viability (BAY61-3606 + Crizotinib; first compound 0.02 µM) | relative viability (BAY61-3606 + Crizotinib; first compound 0.2 µM) | relative viability (BAY61-3606 + Crizotinib; first compound 0.6325 µM) | relative viability (BAY61-3606 + Crizotinib; first compound 2 µM) | relative viability (BAY61-3606 + Linsitinib; first compound 0.02 µM) | relative viability (BAY61-3606 + Linsitinib; first compound 0.2 µM) | relative viability (BAY61-3606 + Linsitinib; first compound 0.6325 µM) | relative viability (BAY61-3606 + Linsitinib; first compound 2 µM) | relative viability (Doxorubicin + Pictilisib; first compound 0.001 µM) | relative viability (Doxorubicin + Pictilisib; first compound 0.003162 µM) | relative viability (Doxorubicin + Pictilisib; first compound 0.01 µM) | relative viability (Doxorubicin + Pictilisib; first compound 0.03162 µM) | relative viability (Doxorubicin + Pictilisib; first compound 0.1 µM) | relative viability (BAY61-3606 + Crizotinib; first compound 0.06325 µM) | relative viability (BAY61-3606 + Linsitinib; first compound 0.06325 µM)
HOP-62 | 1.05 | 1.04 | 1.1 | 1.13 | 0.815 | 0.928 | 0.823 | 1.06 | 0.716 | 1.11 | 0.961 | 1.11 | 0.713 | 0.315 | 1.03 | 0.782 | 0.553 | 0.717 | – | –
NCI-H441 | 0.979 | 1.12 | 1.15 | 0.862 | 0.754 | 0.668 | 0.833 | 0.771 | 0.414 | 0.646 | 0.626 | 0.535 | 0.38 | 0.434 | 0.521 | 0.404 | 0.292 | 0.323 | 0.788 | 0.628
NCI-H1993 | 0.818 | 0.772 | 0.712 | 0.794 | 0.66 | 0.949 | 0.807 | 0.827 | 0.636 | 0.688 | 0.723 | 0.7 | 0.741 | 0.78 | 0.817 | 0.748 | 0.814 | 0.656 | 0.87 | 0.748
NCI-H1734 | 0.825 | 0.79 | 0.743 | 0.836 | 0.411 | 0.635 | 0.601 | 0.674 | 0.272 | 0.827 | 0.849 | 0.866 | 0.607 | 0.464 | 0.498 | 0.389 | 0.321 | 0.267 | 0.53 | 0.853
NCI-H1666 | 1.06 | 1.02 | 0.987 | 0.991 | 0.918 | 1.13 | 0.782 | 0.968 | 0.969 | 0.954 | 0.76 | 0.954 | 0.831 | 0.376 | 0.37 | 0.309 | 0.237 | 0.271 | – | –
NCI-H647 | 1.24 | 1.1 | 1.14 | 1.27 | 0.878 | 1.09 | 0.963 | 1.03 | 0.506 | 1.34 | 1.46 | 1.05 | 0.661 | – | 0.38 | 0.46 | 0.279 | 0.1 | 1.1 | 1.46
LCLC-97TM1 | 0.92 | 0.943 | 0.962 | 1.04 | 0.765 | 0.262 | 0.341 | 0.395 | 0.262 | 0.182 | 0.187 | 0.18 | 0.175 | 0.145 | 0.24 | 0.225 | 0.158 | 0.187 | – | –
LOU-NH91 | 0.95 | 0.916 | 0.985 | 0.976 | 0.823 | 0.72 | 0.77 | 0.777 | 0.662 | 0.978 | 0.977 | 1.01 | 0.796 | – | 0.516 | 0.564 | 0.465 | 0.419 | 0.722 | 0.858
RERF-LC-KJ | 0.899 | 0.922 | 0.828 | 0.886 | 0.779 | 0.826 | 0.817 | 0.819 | 0.785 | 0.844 | 0.852 | 0.886 | 0.807 | 0.531 | 0.54 | 0.595 | 0.501 | 0.48 | 0.777 | 0.918
NCI-H1437 | 1.23 | 1.22 | 1.31 | 1.38 | 1.28 | 0.973 | 0.854 | 0.984 | 0.797 | 1.1 | 1.01 | 1.03 | 0.813 | 0.541 | 0.443 | 0.363 | 0.122 | 0.143 | 0.961 | 1.1
IA-LM | 1.23 | 1.09 | 1.01 | 1.13 | 0.959 | 1.04 | – | 0.987 | 0.67 | 0.52 | 0.559 | 0.662 | 0.354 | 0.287 | 0.341 | 0.254 | 0.0936 | 0.0491 | 0.865 | 0.573
NCI-H2087 | 1.21 | 1.08 | 1.05 | 1.06 | 0.924 | 0.585 | 0.818 | 0.863 | 0.619 | 0.883 | 0.905 | 1.16 | 0.732 | 0.703 | 0.886 | 0.841 | 0.495 | 0.454 | 0.931 | 1.13
